Earlier results, collected in patent US10751297B2, “Composition and method for treating skin conditions” (priority 2017, dated 2020).

Legend:
[1] = test system: HIV-1; details: in vitro
[2] = test system: herpes simplex virus; details: in vitro
[3] = test system: early viral protein synthesis
[4] = test system: acyclovir-resistant HSV strains
[5] = test system: Friend virus; details: in vivo
[6] = test system: respiratory syncytial virus; details: in vitro
[7] = test system: cells

CCCCCCCCCCCCCCCCCCCCCCO [docosanol]
antiviral activity against HIV-1 [1]: potent antiviral activity
antiviral activity against herpes simplex virus [2]: potent antiviral activity
inhibition of early viral protein synthesis [3]: more than 80%
effectiveness in acyclovir-resistant HSV strains [4]: effective
antiviral activity against Friend virus [5]: potent antiviral activity
antiviral activity against respiratory syncytial virus [6]: potent antiviral activity
concentration up to which not cytotoxic [7]: up to 300 mM
